Laboratory results published in ChEMBL document CHEMBL3046330, “Synthesis and biological activity of hydrazidehydrazones and their corresponding 3-acetyl-2,5-disubstituted-2,3-dihydro-1,3,4-oxadiazoles” (Med Chem Res, 2012).
Values after ≈ are worked out from the molar mass of the structure shown. Active and inactive are the calls of the source. The calls are words filed in the database; no cut-off is given here.

Tests used:
[1] = target: T1, Nitric oxide synthase, inducible (Mus musculus) (UniProt P29477); assay: Inhibition of iNOS in Mus musculus (mouse) RAW264.7 cells assessed as inhibition of LPS-induced nitrite production up to 25 ug/ml incubated for 30 min prior to LPS challenge measured after 24 hr by Griess assay relative to vehicle-treated control; format: cell-based
T1 sequence (whole entry): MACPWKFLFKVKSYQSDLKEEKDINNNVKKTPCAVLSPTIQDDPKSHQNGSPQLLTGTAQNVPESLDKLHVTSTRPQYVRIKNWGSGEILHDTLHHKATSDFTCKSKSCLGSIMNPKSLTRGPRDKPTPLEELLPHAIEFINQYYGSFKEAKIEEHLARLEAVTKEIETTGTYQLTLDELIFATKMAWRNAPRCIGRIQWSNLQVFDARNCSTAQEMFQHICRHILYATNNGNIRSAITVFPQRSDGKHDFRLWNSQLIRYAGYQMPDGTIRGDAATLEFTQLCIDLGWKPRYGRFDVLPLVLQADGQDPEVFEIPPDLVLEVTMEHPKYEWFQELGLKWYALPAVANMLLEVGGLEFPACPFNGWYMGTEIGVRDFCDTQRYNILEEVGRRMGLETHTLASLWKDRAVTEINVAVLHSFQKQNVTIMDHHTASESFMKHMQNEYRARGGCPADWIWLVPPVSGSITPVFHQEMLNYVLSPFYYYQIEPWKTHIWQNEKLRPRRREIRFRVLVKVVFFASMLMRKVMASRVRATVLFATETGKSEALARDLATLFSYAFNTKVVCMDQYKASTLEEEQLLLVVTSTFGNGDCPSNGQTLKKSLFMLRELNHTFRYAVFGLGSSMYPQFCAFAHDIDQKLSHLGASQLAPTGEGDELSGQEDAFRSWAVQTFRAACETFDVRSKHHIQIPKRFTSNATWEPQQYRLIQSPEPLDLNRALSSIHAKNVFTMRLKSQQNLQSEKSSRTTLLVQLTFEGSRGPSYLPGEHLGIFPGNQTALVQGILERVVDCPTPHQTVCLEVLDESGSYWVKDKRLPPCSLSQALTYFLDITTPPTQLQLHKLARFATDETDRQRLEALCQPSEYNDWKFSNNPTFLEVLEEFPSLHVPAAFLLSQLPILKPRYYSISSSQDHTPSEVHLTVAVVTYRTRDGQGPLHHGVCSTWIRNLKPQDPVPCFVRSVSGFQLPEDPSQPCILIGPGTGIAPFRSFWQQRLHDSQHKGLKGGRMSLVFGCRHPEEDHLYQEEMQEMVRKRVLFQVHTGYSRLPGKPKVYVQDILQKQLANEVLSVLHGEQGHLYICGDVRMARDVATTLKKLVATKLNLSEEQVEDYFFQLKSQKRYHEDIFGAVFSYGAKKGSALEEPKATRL

[2] = tested on: RAW264.7; assay: Cytotoxicity against Mus musculus (mouse) RAW264.7 cells up to 25 ug/ml; format: cell-based
[3] = tested on: HL-60; assay: Antioxidant activity in PMA-stimulated Homo sapiens (human) HL60 cells assessed as inhibition of intracellular ROS generation incubated for 30 min prior to PMA stimulation measured after 30 min by DCFH-DA assay; format: functional, cell-based
[4] = tested on: HL-60; assay: Cytotoxicity against Homo sapiens (human) HL60 cells up to 25 ug/ml; format: cell-based
[5] = tested on: Vero; assay: Cytotoxicity against Chlorocebus aethiops (African green monkey) Vero cells assessed as cell viability up to 25 ug/ml after 48 hr by neutral red assay; format: cell-based; details: chlorocebus sabaeus
[6] = Cytotoxicity against Sus scrofa (pig) LLC-PK11 cells assessed as cell viability up to 25 ug/ml after 48 hr by neutral red assay; format: cell-based; details: llc-pk11, 48 h
[7] = tested on: SK-MEL; assay: Cytotoxicity against Homo sapiens (human) SK-MEL cells assessed as cell viability up to 25 ug/ml after 48 hr by neutral red assay; format: functional, cell-based
[8] = tested on: KB; assay: Cytotoxicity against Homo sapiens (human) KB cells assessed as cell viability up to 25 ug/ml after 48 hr by neutral red assay; format: functional, cell-based
[9] = tested on: BT-549; assay: Cytotoxicity against Homo sapiens (human) BT549 cells assessed as cell viability up to 25 ug/ml after 48 hr by neutral red assay; format: functional, cell-based
[10] = tested on: Candida albicans; assay: Antifungal activity against Candida albicans NRRL Y-12983 after 24 hr by NCCLS broth microdilution method; format: functional; details: NRRL Y-12983, 24 h
[11] = tested on: Candida parapsilosis; assay: Antifungal activity against Candida parapsilosis NRRL Y-12696 after 24 hr by NCCLS broth microdilution method; format: functional; details: Lodderomyces parapsilosis, NRRL Y-12696, 24 h
[12] = tested on: Pichia kudriavzevii; assay: Antifungal activity against Pichia kudriavzevii NRRL Y-7179 after 24 hr by NCCLS broth microdilution method; format: functional; details: NRRL Y-7179, 24 h
[13] = tested on: Candida tropicalis; assay: Antifungal activity against Candida tropicalis NRRL Y-12968 after 24 hr by NCCLS broth microdilution method; format: functional; details: NRRL Y-12968, 24 h
[14] = tested on: Cyberlindnera jadinii; assay: Antifungal activity against Cyberlindnera jadinii NRRL Y-900 after 24 hr by NCCLS broth microdilution method; format: functional; details: Williopsis jadinii, NRRL Y-900, 24 h
[15] = tested on: Candida albicans; assay: Antifungal activity against Candida albicans ATCC 90028 after 24 hr by NCCLS broth microdilution method; format: functional; details: ATCC 90028, 24 h
[16] = tested on: Candida albicans; assay: Antifungal activity against Candida albicans clinical isolate after 24 hr by NCCLS broth microdilution method; format: functional
[17] = tested on: Candida tropicalis; assay: Antifungal activity against Candida tropicalis NRRL Y-12968 at 2000 ug/ml by agar diffusion method; format: functional; details: read-out: IZ
[18] = tested on: Candida albicans; assay: Antifungal activity against Candida albicans clinical isolate at 2000 ug/ml by agar diffusion method; format: functional; details: read-out: IZ
[19] = target: Transcription factor Sp1 (Homo sapiens, UniProt P08047); assay: Inhibition of Sp1 (unknown origin) up to 25 ug/ml by luciferase reporter gene assay
Sequence of Transcription factor Sp1 (P08047 whole entry): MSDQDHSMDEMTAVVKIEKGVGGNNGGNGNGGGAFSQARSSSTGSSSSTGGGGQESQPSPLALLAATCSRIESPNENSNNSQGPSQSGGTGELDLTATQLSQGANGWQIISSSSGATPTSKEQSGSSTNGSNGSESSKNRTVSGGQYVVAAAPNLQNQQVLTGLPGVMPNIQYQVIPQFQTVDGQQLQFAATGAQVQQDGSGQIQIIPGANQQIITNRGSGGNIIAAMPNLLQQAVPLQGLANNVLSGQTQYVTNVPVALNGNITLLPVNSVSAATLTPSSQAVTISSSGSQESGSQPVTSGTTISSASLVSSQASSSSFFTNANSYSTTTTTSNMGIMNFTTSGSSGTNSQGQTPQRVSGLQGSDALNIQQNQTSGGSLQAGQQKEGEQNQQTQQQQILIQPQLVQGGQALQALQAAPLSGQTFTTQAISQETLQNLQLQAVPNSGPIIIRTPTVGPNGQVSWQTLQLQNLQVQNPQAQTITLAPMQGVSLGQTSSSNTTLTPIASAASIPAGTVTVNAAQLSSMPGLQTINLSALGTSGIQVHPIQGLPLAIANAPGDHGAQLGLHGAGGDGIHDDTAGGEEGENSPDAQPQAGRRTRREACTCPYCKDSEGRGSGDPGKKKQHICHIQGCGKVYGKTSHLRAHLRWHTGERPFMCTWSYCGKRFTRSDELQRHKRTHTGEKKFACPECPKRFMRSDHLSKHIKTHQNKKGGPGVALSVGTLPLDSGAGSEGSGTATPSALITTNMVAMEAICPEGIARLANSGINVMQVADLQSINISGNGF

[20] = Inhibition of PMA-induced NFkappaB activity in Homo sapiens (human) SW1353 cells incubated for 30 min followed by PMA induction for 8 hr by luciferase reporter gene assay; format: cell-based
[21] = tested on: SK-OV-3; assay: Cytotoxicity against Homo sapiens (human) SKOV3 cells assessed as cell viability up to 25 ug/ml after 48 hr by neutral red assay; format: functional, cell-based
[22] = tested on: HL-60; assay: Cytotoxicity against Homo sapiens (human) HL60 cells; format: cell-based
[23] = tested on: Nakaseomyces glabratus; assay: Antifungal activity against Candida glabrata clinical isolate after 24 hr by NCCLS broth microdilution method; format: functional
[24] = tested on: SW1353; assay: Inhibition of PMA-induced NFkappaB activity in Homo sapiens (human) SW1353 cells up to 25 ug/ml incubated for 30 min followed by PMA induction for 8 hr by luciferase reporter gene assay; format: cell-based
[25] = tested on: HL-60; assay: Antioxidant activity in PMA-stimulated Homo sapiens (human) HL60 cells assessed as inhibition of intracellular ROS generation up to 25 ug/ml incubated for 30 min prior to PMA stimulation measured after 30 min by DCFH-DA assay relative to vehicle-treated control; format: functional, cell-based
[26] = tested on: Colletotrichum fragariae; assay: Antifungal activity against Colletotrichum fragariae at 0.3 to 30 uM after 48 to 72 hr by broth microdilution method; format: functional, organism-based
[27] = tested on: Botrytis cinerea; assay: Antifungal activity against Botryotinia fuckeliana at 0.3 to 30 uM after 48 to 72 hr by broth microdilution method; format: functional, organism-based
[28] = target: T2, Nitric oxide synthase, inducible (Mus musculus, UniProt P29477); assay: Inhibition of iNOS in Mus musculus (mouse) RAW264.7 cells assessed as inhibition of LPS-induced nitrite production incubated for 30 min prior to LPS challenge measured after 24 hr by Griess assay; format: cell-based
T2 sequence (P29477 whole entry): T1 sequence (whole entry)

SMILES	inhibition [1]	IC50 [3]	MIC [10]	MIC [11]	MIC [12]	MIC [13]	MIC [14]	MIC [15]	MIC [16]	inhibition (INH) [19]	MIC [23]	Activity [2]	Activity [5]	Activity [6]	Activity [7]	Activity [8]	Activity [9]	zone of inhibition at 2000 µg/mL [17]	zone of inhibition at 2000 µg/mL [18]	Activity [21]	also measured
CN(C)c1ccc(/C=N/NC(=O)c2ccc(F)cc2)cc1	inactive	23 µg/mL (≈ 80.6 µM)	500 µg/mL (≈ 1750 µM)	500 µg/mL (≈ 1750 µM)	500 µg/mL (≈ 1750 µM)	500 µg/mL (≈ 1750 µM)	500 µg/mL (≈ 1750 µM)	500 µg/mL (≈ 1750 µM)	–	Not Active	125 µg/mL (≈ 438 µM)	Non-toxic	Not Active	Not Active	inactive	inactive	inactive	9 mm	9 mm	inactive	IC50 [22]: > 31.2 µg/mL; inhibition [24]: inactive
CC(=O)N1N=C(c2ccc(F)cc2)OC1c1ccc(O)cc1 (centres undefined)	–	–	500 µg/mL (≈ 1670 µM)	250 µg/mL (≈ 833 µM)	250 µg/mL (≈ 833 µM)	250 µg/mL (≈ 833 µM)	125 µg/mL (≈ 416 µM)	500 µg/mL (≈ 1670 µM)	250 µg/mL (≈ 833 µM)	Not Active	500 µg/mL (≈ 1670 µM)	Non-toxic	Not Active	Not Active	inactive	inactive	inactive	9 mm	9 mm	inactive	inhibition [25]: inactive; Activity [4]: Non-toxic; Activity [26]: inactive; Activity [27]: inactive; IC50 [20]: 5.5 µg/mL (≈ 18.3 µM); IC50 [28]: 999 nM
CC(=O)N1N=C(c2ccc(F)cc2)OC1c1ccco1 (centres undefined)	inactive	5.2 µg/mL (≈ 19 µM)	500 µg/mL (≈ 1820 µM)	1000 µg/mL (≈ 3650 µM)	500 µg/mL (≈ 1820 µM)	500 µg/mL (≈ 1820 µM)	500 µg/mL (≈ 1820 µM)	1000 µg/mL (≈ 3650 µM)	500 µg/mL (≈ 1820 µM)	Not Active	500 µg/mL (≈ 1820 µM)	Non-toxic	Not Active	Not Active	inactive	inactive	inactive	9 mm	9 mm	inactive	IC50 [22]: 24 µg/mL (≈ 87.5 µM); inhibition [24]: inactive

More lines, main results first:

inhibition [1]	IC50 [3]	MIC [10]	MIC [11]	MIC [12]	MIC [13]	MIC [14]	MIC [15]	MIC [16]	inhibition (INH) [19]	MIC [23]	SMILES	Activity [2]	Activity [5]	Activity [6]	Activity [7]	Activity [8]	Activity [9]	zone of inhibition at 2000 µg/mL [17]	zone of inhibition at 2000 µg/mL [18]	Activity [21]	also measured
inactive	20 µg/mL (≈ 76.9 µM)	500 µg/mL (≈ 1920 µM)	500 µg/mL (≈ 1920 µM)	500 µg/mL (≈ 1920 µM)	500 µg/mL (≈ 1920 µM)	500 µg/mL (≈ 1920 µM)	500 µg/mL (≈ 1920 µM)	250 µg/mL (≈ 961 µM)	Not Active	–	O=C(N/N=C/c1ccc(F)cc1)c1ccc(F)cc1	Non-toxic	Not Active	Not Active	inactive	inactive	inactive	9 mm	9 mm	inactive	Activity [4]: Non-toxic; IC50 [20]: 15 µg/mL (≈ 57.6 µM)
inactive	2.5 µg/mL (≈ 9.18 µM)	500 µg/mL (≈ 1840 µM)	500 µg/mL (≈ 1840 µM)	500 µg/mL (≈ 1840 µM)	1000 µg/mL (≈ 3670 µM)	500 µg/mL (≈ 1840 µM)	500 µg/mL (≈ 1840 µM)	–	Not Active	250 µg/mL (≈ 918 µM)	COc1ccc(/C=N/NC(=O)c2ccc(F)cc2)cc1	Non-toxic	Not Active	Not Active	inactive	inactive	inactive	9 mm	9 mm	inactive	IC50 [22]: 20 µg/mL (≈ 73.5 µM); inhibition [24]: inactive
